Data on seven compounds can be found in patent US11684594B2, “Antifungal prophylaxis for cornea” (PRESIDENT AND FELLOWS OF HARVARD COLLEGE, priority 2020, dated 2023).

In data set [1] the test system is Candida albicans (ATCC 24433), Fusarium solani (ATCC MYA-3636), and Aspergillus fumigatus (ATCC MYA-3626). As to the kind of experiment: In vitro antifungal testing, statements not resolved by species. The format is cell-based. Particulars: species not resolved; for Antifungal / fungicidal activity in vitro: agents at eye-drop or stated concentration. Here is the method: Several commonly used antibiotics were tested in vitro against Candida albicans (ATCC 24433), Fusarium solani (ATCC MYA-3636), and Aspergillus fumigatus (ATCC MYA-3626). Time kill activity and minimum inhibitory concentrations (MIC) were determined. Also the antiseptics benzalkonium chloride (BAK), povidone-iodine (PI), and ionic liquids (ILs) consisting of a 1:1 mixture of choline and undecanoic acid, were tested. Toxicity was assayed in vitro on cultures of human corneal epithelial cells, subjected to Trypan Blue staining. Adhesion and tissue invasion experiments were also carried out, with or without γ-irradiation, and by analysis with fluorescent microscopy.
(§1) In Vitro Time Kill Tests. Microtiter time kill tests were carried out in vitro according to the published CLSI methods (M27-A2).^22

The next data set relates to C. albicans (ATCC 24433). As to the kind of experiment: In vitro time kill test, yeast. It counts as cell-based, Candida albicans. Particulars: for Reduction in viable colonies: FIG. 1A, full strength. Here is the method: as §1
The inoculum was prepared by adjustment of the optical density at 600 nm (OD600) to 1.0 (corresponding to approximately 1×10^6 CFU/mL), and dilution by 1:10 in the final solution. To confirm the starting inoculum size, yeasts were plated […] and colonies counted after growth for 24 hrs at 37° C. The test solutions were neutralized at each time point by ten-fold dilution in Dey-Engley neutralizing broth (Sigma-Aldrich; St Louis, Mo.), and serially track diluted (PMID: 9343684) on Sabouraud dextrose agar (six serial 1:10 dilutions, 0.01 mL each) in technical triplicate. Colonies were counted and recorded following aerobic incubation for 24 hrs at 37° C.
To investigate the fungicidal activity of various antibiotics and antimicrobials, the reduction in fungal load after short contact times (0-15 min, FIGS. 2-3), to account for the effect of rapid dilution by the tear film, as occurs in patients after topical instillation, was measured.^23 The detection limit for time kill tests was approximately 100 CFU/mL for C. albicans, and 1 CFU/mL for F. solani and A. fumigatus (corresponding to a ≥3 log difference from the starting inoculum). 20-300 cells were considered a reliable counting range per dilution, and values were averaged when more than one dilution in the same plate were within this range.

Data set [2] deals with human corneal-limbal epithelial cells (HCLE). The format is cell-based. The note with it: HCLE cells; post-exposure Trypan blue staining. Here is the method:
In Vitro Toxicity Tests. Trypan Blue assays for toxicity of various antimicrobial agents were conducted using human corneal cells. Telomerase-immortalized human corneal-limbal epithelial cells (HCLE) were thawed at 37° C. and quickly transferred to a sterile T75 cell culture flask. Cells were grown in keratinocyte serum-free medium (KSFM; Gibco™; Thermofisher Scientific; Waltham, Mass.) supplemented with bovine pituitary extract (25 μg/mL), epidermal growth factor (0.2 ng/mL), calcium chloride (0.4 mM CaCl2[…]2H2O; Sigma-Aldrich; St Louis, Mo.), and 1× penicillin/streptomycin, at 37° C. with 5% CO2. Once cells were confluent, they were passaged following trypsinization in 12- or 24-well plates. After incubation with Trypsin-EDTA (0.05%, Gibco™; Thermofisher Scientific; Waltham, Mass.) for 5-10 min at 37° C. with 5% CO2, the reaction was stopped with an equivalent volume of neutralizing medium (Dulbecco's Modified Eagle Medium/Nutrient Mixture F-12, DMEM/F-12, with HEPES and 10% newborn calf serum), centrifuged at 5,000×g for 5 min, and re-suspended in supplemented KSFM. Experiments were performed using cells from passages 31 to 36. Once cells reached confluency, they were gently washed twice with DMEM/F-12 (Gibco™; Thermofisher Scientific; Waltham, Mass.) and incubated with an antimicrobial agent for 1 min (n=2 wells per group). Controls included 1×PBS (diluent) and 1% TX-100 (cell permeabilizer). After exposure to various agents, the cells were washed three times with DMEM/F-12, incubated with 0.2% Trypan Blue for 5 min, and washed again three times with DMEM/F-12. The remaining media was aspirated and replaced with 1×PBS for imaging. Macro-images of the culture plate were taken with a smartphone camera (iPhone 7; Apple Inc.; Cupertino, Calif.), and 10× images were taken with an inverted microscope (Eclipse TS100; Nikon; Tokyo, Japan) attached to a digital camera (SPOT Insight Fire Wire; Diagnostic Instruments Inc.; Sterling Heights, Mich.). 3-6 images/well were obtained in clockwise direction from areas immediately adjacent to the center of the well, and without overlapping areas. Images were quantified in ImageJ Fiji software to determine the amount of cell uptake of Trypan Blue. Macros were created from the Color Threshoulder plugin (G. Landini) to batch process the images after color matching in Photoshop to reference images per treatment group. % Area of Trypan Blue staining per image was calculated as follows: (area of blue/area of all)×100%.

The mark [3] stands for this setting: FIG. 1C, without BAK, MOX 5 mg/mL, GAT 5 mg/mL, CHL 5 mg/mL, VAN 14 mg/mL, within 120 min.
[4] abbreviates: FIG. 1B, tenth dilution, within 120 min.
Where [5] appears, read: full strength (10,000 u/mL PMB, 40 g/mL BAK, 1 mg/mL TMP), within 120 min.

Entries after “also recorded” stand apart in the source; their conditions may differ.

`COc1c(N2C[C@@H]3CCCN[C@@H]3C2)c(F)cc2c(=O)c(C(=O)O)cn(C3CC3)c12` [MOX, moxifloxacin]: in data set [1], the “Antifungal / fungicidal activity in vitro” value is listed as “no effect”. Also, the “Fungicidal activity (words)” value with C. albicans (ATCC 24433) (setting [3]) is recorded as “no effect”.
Turning to `O=C(N[C@H](CO)[C@H](O)c1ccc([N+](=O)[O-])cc1)C(Cl)Cl` [CHL, chloramphenicol], in data set [1], the “Antifungal / fungicidal activity in vitro” value is on record as “no effect; also recorded: ineffective”. Also, in the data set with C. albicans (ATCC 24433) (setting [3]), the “Fungicidal activity (words)” value is “fungicidal activity was not observed; also recorded: no effect”.
As to `COc1cc(Cc2cnc(N)nc2N)cc(OC)c1OC` [TMP, trimethoprim], the “Antifungal / fungicidal activity in vitro” value in data set [1] was “no effect; also recorded: ineffective”. Moreover, the “Fungicidal activity (words)” value is “fungicidal activity was not observed” in the data set on C. albicans (ATCC 24433) (setting [4]) and “no effect” in the data set with C. albicans (ATCC 24433) (setting [5]).
In the case of `CCCCCCCCCCCCCC(=O)NCCCN(C)C` [Aldox, myristamidopropyl dimethylamine], the “Efficacy/toxicity ratio, overall rank” value in data set [1] (fungicidal activity vs HCLE cytotoxicity) is “rank lower than PI”. The “Antifungal / fungicidal activity in vitro” value in data set [1] is “rapid and broad fungicidal activity”. The “Cytotoxicity / toxicity” value in data set [2] is “high cytotoxicity”.
Consider polymyxin B sulfate [PMB], for which, in data set [1], the “Antifungal / fungicidal activity in vitro” value is “moderate antifungal activity”. Also, the “Reduction in viable colonies” value in the data set with C. albicans (ATCC 24433) (within 60 min) was 2 log10; in the data set with C. albicans (ATCC 24433) (within 120 min), 3 log10. Moreover, the entries for the “Fungicidal activity (words)” value in the data set on C. albicans (ATCC 24433) (setting [4]) and in the data set on C. albicans (ATCC 24433) (setting [5]) were “fungicidal activity was not observed” and “comparable to the commercially prepared Polytrim®”, respectively.
For the compound `COc1c(N2CCNC(C)C2)c(F)cc2c(=O)c(C(=O)O)cn(C3CC3)c12` (stereo not shown) [GAT, gatifloxacin], the “Antifungal / fungicidal activity in vitro” value in data set [1] is “no effect”. In addition, in the data set with C. albicans (ATCC 24433) (setting [3]), the “Fungicidal activity (words)” value is reported as “fungicidal activity was not observed; also recorded: no effect”.
Taken in the same sequence, the figures for `CN[C@H](CC(C)C)C(=O)N[C@H]1C(=O)N[C@@H](CC(N)=O)C(=O)N[C@H]2C(=O)N[C@H]3C(=O)N[C@H](C(=O)N[C@H](C(=O)O)c4cc(O)cc(O)c4-c4cc3ccc4O)[C@H](O)c3ccc(c(Cl)c3)Oc3cc2cc(c3O[C@@H]2O[C@H](CO)[C@@H](O)[C@H](O)[C@H]2O[C@H]2C[C@](C)(N)[C@H](O)[C@H](C)O2)Oc2ccc(cc2Cl)[C@H]1O` [VAN, vancomycin] were “no effect; also recorded: ineffective” and “fungicidal activity was not observed; also recorded: no effect”.
